Test results taken from US20120164575A1, “CYCLIC COMPOUND, MANUFACTURING METHOD THEREFOR, RADIATION-SENSITIVE COMPOSITION, AND METHOD FOR FORMING A RESIST PATTERN” (MITSUBISHI GAS CHEMICAL COMPANY, INC., priority 2009, published 2012).

Experiment: Solubility of compound in safety solvent
Type: physicochemical
Conditions: for solubility in CHN: cyclohexanone (CHN); for solubility in PGME: propylene glycol monomethyl ether (PGME); for solubility in PGMEA: propylene glycol monomethyl ether acetate (PGMEA)
Method: The compounds obtained in Synthesis Examples 1 to 6 and Synthesis 1 to 4 were evaluated for the solubility in propylene glycol monomethyl ether acetate (PGMEA), propylene glycol monomethyl ether (PGME) and cyclohexanone (CHN).
A: 4.0 wt %≦dissolved amount
B: 1.0 wt %≦dissolved amount<4.0 wt %
C: dissolved amount<1.0 wt %

Row | SMILES | solubility in CHN | solubility in PGME | solubility in PGMEA
1 | CC(C)Cc1ccc(C2c3cc(c(O)cc3O)C(c3ccc(CC(C)C)cc3)c3cc(c(O)cc3O)C(c3ccc(CC(C)C)cc3)c3cc(c(O)cc3O)C(c3ccc(CC(C)C)cc3)c3cc2c(O)cc3O)cc1 (stereo not drawn) [CR-2A] | B (1.0 wt %≦dissolved amount<4.0 wt %) | C (dissolved amount<1.0 wt %) | C (dissolved amount<1.0 wt %)
2 | CC(C)c1ccc(C2c3cc(c(O)cc3O)C(c3ccc(C(C)C)cc3)c3cc(c(O)cc3O)C(c3ccc(C(C)C)cc3)c3cc(c(O)cc3O)C(c3ccc(C(C)C)cc3)c3cc2c(O)cc3O)cc1 (stereo not drawn) [CR-1A] | B (1.0 wt %≦dissolved amount<4.0 wt %) | B (1.0 wt %≦dissolved amount<4.0 wt %) | C (dissolved amount<1.0 wt %)
3 | Oc1cc(O)c2cc1C(c1ccc(-c3ccccc3)cc1)c1cc(c(O)cc1O)C(c1ccc(-c3ccccc3)cc1)c1cc(c(O)cc1O)C(c1ccc(-c3ccccc3)cc1)c1cc(c(O)cc1O)C2c1ccc(-c2ccccc2)cc1 (stereo not drawn) [CR-3A] | B (1.0 wt %≦dissolved amount<4.0 wt %) | C (dissolved amount<1.0 wt %) | C (dissolved amount<1.0 wt %)
4 | Oc1cc(O)c2cc1C(c1ccc(C3CCCCC3)cc1)c1cc(c(O)cc1O)C(c1ccc(C3CCCCC3)cc1)c1cc(c(O)cc1O)C(c1ccc(C3CCCCC3)cc1)c1cc(c(O)cc1O)C2c1ccc(C2CCCCC2)cc1 (stereo not drawn) [CR-4A] | B (1.0 wt %≦dissolved amount<4.0 wt %) | B (1.0 wt %≦dissolved amount<4.0 wt %) | C (dissolved amount<1.0 wt %)
